Where “and” joins values, the source holds several entries; their conditions need not be identical. Identical values can stand only once.
What was measured:
[1] = Colorimetric alkylation rate constant assay with thiol N1; format: physicochemical; conditions: for remaining [A]: N1 from calibration curve (N1 in uM); for remaining [A] / remaining [B]: in µM
[2] = Colorimetric alkylation rate constant assay with TNB^2− as non-specific thiol; format: physicochemical; parameters: second-order: unit not given here; conditions: for remaining [B]: in µM
[3] = Time 2891 sec, [B]0 = 250, Replicates 1-3
[4] = Time 3071 sec, [B]0 = 250, Replicates 1-3
[5] = Time 3252 sec, [B]0 = 250, Replicates 1-3
[6] = Time 3433 sec, [B]0 = 250, Replicates 1-3
[7] = Time 3613 sec, [B]0 = 250, Replicates 1-3

SMILES: O=C(CCl)Nc1ccc(F)cc1 [Compound C3]
- remaining [A] ([1]; Replicate 1, time 576 sec): 79.3821
- remaining [B] ([1]; Replicate 1, time 576 sec, [B]0 = 250): 225.262
- second-order ([1]; Replicate 1, time 576 sec, second-order plot value): 0.001145
- remaining [A] ([1]; Replicate 1, time 606 sec): 78.3561
- remaining [B] ([1]; Replicate 1, time 606 sec, [B]0 = 250): 224.236
- second-order ([1]; Replicate 1, time 606 sec, second-order plot value): 0.001203
- remaining [A] ([1]; Replicate 2, time 576 sec): 78.9353
- remaining [B] ([1]; Replicate 2, time 576 sec, [B]0=250): 225.794
- second-order ([1]; Replicate 2, time 576 sec, second-order plot value): 0.001128
- remaining [A] ([1]; Replicate 2, time 606 sec): 77.6031
- remaining [B] ([1]; Replicate 2, time 606 sec, [B]0=250): 224.461
- second-order ([1]; Replicate 2, time 606 sec, second-order plot value): 0.001203
- remaining [A] ([1]; Replicate 3, time 576 sec): 80.3332
- remaining [B] ([1]; Replicate 3, time 576 sec, [B]0=250): 225.786
- second-order ([1]; Replicate 3, time 576 sec, second-order plot value): 0.001111
- remaining [A] ([1]; Replicate 3, time 606 sec): 79.3051
- remaining [B] ([1]; Replicate 3, time 606 sec, [B]0=250): 224.758
- second-order ([1]; Replicate 3, time 606 sec, second-order plot value): 0.001168
- remaining [B] ([1]; time 0 sec, [B]0 = 250, replicates 1-3): 246.537 and 247.093 and 245.89
- second-order ([1]; time 0 sec, replicates 1-3): 0.000164 and 0.0001357 and 0.0001139
- remaining [B] ([1]; time 30 sec, [B]0 = 250, replicates 1-3): 245.319 and 244.842 and 244.643
- second-order ([1]; time 30 sec, replicates 1-3): 0.0002157 and 0.000185 and 0.0002054
- remaining [B] ([1]; time 60 sec, [B]0 = 250, replicates 1-3): 243.453 and 243.816 and 242.942
- second-order ([1]; time 60 sec, replicates 1-3): 0.0002877 and 0.0002622 and 0.000248
- remaining [B] ([1]; time 91 sec, [B]0 = 250, replicates 1-3): 242.316 and 242.334 and 241.723
- second-order ([1]; time 91 sec, replicates 1-3): 0.0003403 and 0.0003102 and 0.0003108
- remaining [B] ([1]; time 121 sec, [B]0 = 250, replicates 1-3): 241.072 and 241.108 and 240.278
- second-order ([1]; time 121 sec, replicates 1-3): 0.0004041 and 0.0003637 (2×)
- remaining [B] ([1]; time 151 sec, [B]0 = 250, replicates 1-3): 240.152 and 239.968 and 239.257
- second-order ([1]; time 151 sec, replicates 1-3): 0.0004499 and 0.0004039 and 0.0004137
- remaining [B] ([1]; time 182 sec, [B]0 = 250, replicates 1-3): 239.232 and 238.714 and 238.265
- second-order ([1]; time 182 sec, replicates 1-3): 0.0004951 and 0.0004446 and 0.0004698
- remaining [B] ([1]; time 212 sec, [B]0 = 250, replicates 1-3): 238.15 and 237.631 and 237.245
- second-order ([1]; time 212 sec, replicates 1-3): 0.0005423 and 0.0004932 and 0.0005191
- remaining [B] ([1]; time 242 sec, [B]0 = 250, replicates 1-3): 236.96 and 236.491 and 236.366
- second-order ([1]; time 242 sec, replicates 1-3): 0.0005835 and 0.0005476 and 0.0005718
- remaining [B] ([1]; time 273 sec, [B]0 = 250, replicates 1-3): 235.85 and 235.38 and 235.431
- second-order ([1]; time 273 sec, replicates 1-3): 0.0006281 and 0.0005992 and 0.0006241
- remaining [B] ([1]; time 303 sec, [B]0 = 250, replicates 1-3): 234.308 and 234.268 and 234.354
- second-order ([1]; time 303 sec, replicates 1-3): 0.0006802 and 0.0006724 and 0.0006773
- remaining [B] ([1]; time 333 sec, [B]0 = 250, replicates 1-3): 233.361 and 233.157 and 233.277
- second-order ([1]; time 333 sec, replicates 1-3): 0.0007331 and 0.0007182 and 0.0007315
- remaining [B] ([1]; time 364 sec, [B]0 = 250, replicates 1-3): 232.279 and 232.188 and 232.341
- second-order ([1]; time 364 sec, replicates 1-3): 0.0007799 and 0.0007714 and 0.0007795
- remaining [B] ([1]; time 394 sec, [B]0 = 250, replicates 1-3): 231.197 and 231.247 and 230.981
- second-order ([1]; time 394 sec, replicates 1-3): 0.0008491 and 0.0008256 and 0.0008268
- remaining [B] ([1]; time 424 sec, [B]0 = 250, replicates 1-3): 230.602 and 230.05 and 230.442
- second-order ([1]; time 424 sec, replicates 1-3): 0.000877 and 0.0008557 and 0.000888
- remaining [B] ([1]; time 454 sec, [B]0 = 250, replicates 1-3): 229.357 and 229.309 and 229.478
- second-order ([1]; time 454 sec, replicates 1-3): 0.0009274 and 0.0009198 and 0.0009265
- remaining [B] ([1]; time 485 sec, [B]0 = 250, replicates 1-3): 228.681 and 228.084 and 229.195
- second-order ([1]; time 485 sec, replicates 1-3): 0.0009424 and 0.0009551 and 0.0009912
- remaining [B] ([1]; time 515 sec, [B]0 = 250, replicates 1-3): 227.112 and 227.086 and 227.097
- second-order ([1]; time 515 sec, replicates 1-3): 0.001056 and 0.001039 and 0.001045
- remaining [B] ([1]; time 545 sec, [B]0 = 250, replicates 1-3): 226.462 and 226.317 and 225.935
- second-order ([1]; time 545 sec, replicates 1-3): 0.00112 and 0.001074 and 0.001087
- remaining [B] ([2]; Replicate 1, 723 sec, [B]0 = 250): 244.563
- remaining [B] ([2]; Replicate 1, 903 sec, [B]0 = 250): 244.311
- remaining [B] ([2]; Replicate 1, 1084 sec, [B]0 = 250): 243.946
- remaining [B] ([2]; Replicate 1, 1265 sec, [B]0 = 250): 243.644
- remaining [B] ([2]; Replicate 1, 1445 sec, [B]0 = 250): 243.291
- remaining [B] ([2]; Replicate 1, 1626 sec, [B]0 = 250): 242.976
- remaining [B] ([2]; Replicate 1, 1806 sec, [B]0 = 250): 242.497
- remaining [B] ([2]; Replicate 1, 1988 sec, [B]0 = 250): 242.245
- remaining [B] ([2]; Replicate 1, 2168 sec, [B]0 = 250): 242.005
- remaining [B] ([2]; Replicate 1, 2349 sec, [B]0 = 250): 241.552
- remaining [B] ([2]; Replicate 1, 2530 sec, [B]0 = 250): 241.262
- remaining [B] ([2]; Replicate 1, 2710 sec, [B]0 = 250): 240.985
- remaining [B] ([2]; Replicate 2, 542 sec, [B]0=250): 244.808
- remaining [B] ([2]; Replicate 2, 723 sec, [B]0=250): 244.493
- remaining [B] ([2]; Replicate 2, 903 sec, [B]0=250): 244.204
- remaining [B] ([2]; Replicate 2, 1084 sec, [B]0=250): 243.889
- remaining [B] ([2]; Replicate 2, 1265 sec, [B]0=250): 243.586
- remaining [B] ([2]; Replicate 2, 1445 sec, [B]0=250): 243.259
- remaining [B] ([2]; Replicate 2, 1626 sec, [B]0=250): 242.931
- remaining [B] ([2]; Replicate 2, 1806 sec, [B]0=250): 242.666
- remaining [B] ([2]; Replicate 2, 1988 sec, [B]0=250): 242.326
- remaining [B] ([2]; Replicate 2, 2168 sec, [B]0=250): 242.036
- remaining [B] ([2]; Replicate 2, 2349 sec, [B]0=250): 241.734
- remaining [B] ([2]; Replicate 2, 2530 sec, [B]0=250): 241.457
- remaining [B] ([2]; Replicate 2, 2710 sec, [B]0=250): 241.142
- remaining [B] ([2]; Replicate 3, 723 sec, [B]0=250): 244.853
- remaining [B] ([2]; Replicate 3, 903 sec, [B]0=250): 244.526
- remaining [B] ([2]; Replicate 3, 1084 sec, [B]0=250): 244.173
- remaining [B] ([2]; Replicate 3, 1265 sec, [B]0=250): 243.82
- remaining [B] ([2]; Replicate 3, 1445 sec, [B]0=250): 243.568
- remaining [B] ([2]; Replicate 3, 1626 sec, [B]0=250): 243.24
- remaining [B] ([2]; Replicate 3, 1806 sec, [B]0=250): 242.913
- remaining [B] ([2]; Replicate 3, 1988 sec, [B]0=250): 242.686
- remaining [B] ([2]; Replicate 3, 2168 sec, [B]0=250): 242.333
- remaining [B] ([2]; Replicate 3, 2349 sec, [B]0=250): 241.955
- remaining [B] ([2]; Replicate 3, 2530 sec, [B]0=250): 241.627
- remaining [B] ([2]; Replicate 3, 2710 sec, [B]0=250): 241.35
- second-order [2, 3]: 0.0003934 and 0.0003816 and 0.000404
- remaining [B] [2, 3]: 241.06 and 240.569 and 240.801
- second-order [2, 4]: 0.0004067 and 0.0003942 and 0.0004162
- remaining [B] [2, 4]: 240.783 and 240.304 and 240.512
- second-order [2, 5]: 0.0004206 and 0.0004081 and 0.0004267
- remaining [B] [2, 5]: 240.481 and 240.077 and 240.209
- second-order [2, 6]: 0.0004352 and 0.0004273 and 0.0004471
- remaining [B] [2, 6]: 240.065 and 239.636 and 239.894
- second-order [2, 7]: 0.0004498 and 0.0004372 and 0.0004612
- remaining [B] [2, 7]: 239.851
- second-order ([2]; Time 3794 sec, [B]0 = 250, Replicates 1-3): 0.0004633 and 0.0004542 and 0.0004754
- second-order ([2]; Time 3974 sec, [B]0 = 250, Replicates 1-3): 0.0004793 and 0.0004648 and 0.0004891
- second-order ([2]; Time 4155 sec, [B]0 = 250, Replicates 1-3): 0.0004918 and 0.0004819 and 0.0004992
- second-order ([2]; Time 4336 sec, [B]0 = 250, Replicates 1-3): 0.0005073 and 0.0004944 and 0.000519
- second-order ([2]; Time 4516 sec, [B]0 = 250, Replicates 1-3): 0.0005217 and 0.00051 and 0.0005352
- second-order ([2]; Time 4697 sec, [B]0 = 250, Replicates 1-3): 0.0005368 and 0.0005292 and 0.0005485
- second-order ([2]; Time 4878 sec, [B]0 = 250, Replicates 1-3): 0.0005501 and 0.00054 and 0.0005589
- second-order ([2]; Time 5058 sec, [B]0 = 250, Replicates 1-3): 0.0005616 and 0.0005558 and 0.0005759
- second-order ([2]; Time 5239 sec, [B]0 = 250, Replicates 1-3): 0.0005799 and 0.0005704 and 0.0005876
- second-order ([2]; Time 5419 sec, [B]0 = 250, Replicates 1-3): 0.0005928 and 0.0005784 and 0.0006067
- second-order ([2]; Time 5600 sec, [B]0 = 250, Replicates 1-3): 0.000607 and 0.0005999 and 0.0006197
- second-order ([2]; Time 5781 sec, [B]0 = 250, Replicates 1-3): 0.0006238 and 0.0006104 and 0.000634
- second-order ([2]; Time 5961 sec, [B]0 = 250, Replicates 1-3): 0.0006375 and 0.0006271 and 0.0006509

Source: publication PMC12669040, “Tumour-specific STING agonist synthesis via a two-component prodrug system” (Nature Chemistry, 2025)
